A short description of experiment [1]: Antagonist activity at P2Y12 receptor in human platelets assessed as inhibition of ADP-induced platelet aggregation by turbidimetric method.
Experiment [2] is described as follows: Antagonist activity at P2Y12 receptor in human platelets assessed as inhibition of ADP-induced platelet aggregation by microplate reader analysis.

In the case of `O=P(O)(OC[C@H]1O[C@@H](n2cnc3c(NCC(F)(F)F)nc(SCCC(F)(F)F)nc32)[C@H](O)[C@@H]1O)OP(=O)(O)C(Cl)(Cl)P(=O)(O)O`, the IC50 (usually the midpoint of a concentration-inhibition curve) in experiment [1] worked out at 0.000794 µM.

With `CNc1cc2[nH]c(=O)n(-c3ccc(NC(=O)NS(=O)(=O)c4ccc(Cl)s4)cc3)c(=O)c2cc1F` [ELINOGREL], the IC50 in experiment [2] was less than 10 µM. Turning to `Nc1ncnc2c1ncn2[C@@H]1O[C@H](CO[P@@](=O)(O)O[P@](=O)(O)OP(=O)(O)O)[C@@H](O)[C@H]1O` [ATP], the IC50 in experiment [1] stood at 251 µM. On the same count and under the same terms, in the case of `Nc1ncnc2c1ncn2[C@@H]1O[C@H](COP(=O)(O)OP(=O)(O)C(Cl)(Cl)P(=O)(O)O)[C@@H](O)[C@H]1O` it was 316 µM.

Take `CCCSc1nc(N)c2ncn([C@@H]3O[C@H](COP(=O)(O)OP(=O)(O)C(Cl)(Cl)P(=O)(O)O)[C@@H](O)[C@H]3O)c2n1`: in experiment [1], the IC50 was determined as 0.0025 µM.
